Results published in ChEMBL document CHEMBL1201862, “PubChem BioAssay data set” (2004).
The source made the active and inactive calls.

Legend:
Vero = assay: cells; assay type: functional; conditions: Chlorocebus sabaeus
[1] = molecular target: FAD-linked sulfhydryl oxidase ALR (Homo sapiens, UniProt P55789); assay: ALR-catalysed DTT oxidation blockers – biochemical, H2O2 detection, luminescence, cherry-pick, dose response (AID 493248)
H9c2 = assay: cells; assay type: functional, cell-based; conditions: Rattus norvegicus, H9c2, Myocardium;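 also: confirmatory concentration-response retest of ultra-high-throughput screening hits for modulation of myocardial damage; cell death induced by hydrogen peroxide oxidative stress; compound pretreatment for 60 min then peroxide exposure for 2 h; potency is for protecting the cells against peroxide damage rather than for killing them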
[2] = molecular target: T1, Rac GTPase-activating protein 1 (Homo sapiens, UniProt Q9H0H5); assay: blockers of MgcRacGAP-driven Rac1 GTP hydrolysis – biochemical, ADP Hunter fluorescence, primary and confirmatory, confirmation (AID 624330); assay type: functional
T1 sequence (Q9H0H5 whole entry): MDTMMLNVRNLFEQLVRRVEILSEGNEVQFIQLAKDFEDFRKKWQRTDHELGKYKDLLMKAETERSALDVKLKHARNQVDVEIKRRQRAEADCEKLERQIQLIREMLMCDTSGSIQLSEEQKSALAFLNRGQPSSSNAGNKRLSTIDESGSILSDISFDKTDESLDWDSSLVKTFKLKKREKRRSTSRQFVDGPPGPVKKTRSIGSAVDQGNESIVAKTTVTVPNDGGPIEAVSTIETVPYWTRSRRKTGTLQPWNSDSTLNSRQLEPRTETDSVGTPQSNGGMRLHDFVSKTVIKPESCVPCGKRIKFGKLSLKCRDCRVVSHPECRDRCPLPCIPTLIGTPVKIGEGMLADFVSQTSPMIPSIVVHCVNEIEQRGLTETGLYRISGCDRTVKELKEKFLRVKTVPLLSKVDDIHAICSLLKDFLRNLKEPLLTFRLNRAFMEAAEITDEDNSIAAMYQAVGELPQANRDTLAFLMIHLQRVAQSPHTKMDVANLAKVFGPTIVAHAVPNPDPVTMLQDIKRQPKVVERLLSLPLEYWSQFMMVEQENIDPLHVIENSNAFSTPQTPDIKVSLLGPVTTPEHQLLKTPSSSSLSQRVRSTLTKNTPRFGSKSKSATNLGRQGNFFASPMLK

Streptococcus = assay: GAS UMAA2166 growth inhibition – luminescence, BacTiterGlo, counter-screen for streptokinase expression inhibitor project, dose response (AID 1915); assay type: functional, organism-based;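 also: potency for reduction of bacterial viability or growth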
[3] = tested on: Streptococcus sp. 'group A'; assay: Streptococcus pyogenes SK(-)GAS viability under kanamycin – luminescence, BacTiterGlo, confirmation, counter-screen for streptokinase expression inhibitor project, dose response (AID 1900); assay type: functional, organism-based
Streptokinase A = molecular target: T2, Streptokinase A (Streptococcus pyogenes serotype M1, UniProt P10520); assay: viability-normalized secreted streptokinase activity reduction – plasminogen activation absorbance, OD405, dose response (AID 1914); assay type: functional, Streptococcus pyogenes M1 GAS;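 also: secreted streptokinase activity via plasminogen activation per viability signal from cell pellet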
T2 sequence (P10520 whole entry): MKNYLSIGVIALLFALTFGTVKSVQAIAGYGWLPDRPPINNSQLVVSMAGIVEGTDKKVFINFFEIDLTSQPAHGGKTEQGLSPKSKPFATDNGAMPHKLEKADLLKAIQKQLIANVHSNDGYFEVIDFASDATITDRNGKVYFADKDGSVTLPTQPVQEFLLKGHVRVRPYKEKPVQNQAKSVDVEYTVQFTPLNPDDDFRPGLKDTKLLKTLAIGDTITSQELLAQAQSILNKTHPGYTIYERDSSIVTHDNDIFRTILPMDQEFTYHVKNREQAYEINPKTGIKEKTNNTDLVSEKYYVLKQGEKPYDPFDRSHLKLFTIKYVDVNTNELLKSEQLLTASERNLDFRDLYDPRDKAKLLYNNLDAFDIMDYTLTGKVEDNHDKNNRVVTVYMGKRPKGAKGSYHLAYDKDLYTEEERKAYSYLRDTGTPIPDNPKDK

BJ [4] = assay: BJ-TERT fibroblast viability loss – cell-based, RAS-independent, luminescence, dose response (AID 1933); assay type: functional; conditions: Homo sapiens
[5] = Luminescence Cell-Based Dose Confirmation HTS to Identify Inhibitors of Platelet Dense Granule Release. [Related pubchem assays: 1663 (Primary HTS), 1678 (Summary of Project)]; assay type: functional
BJ [6] = assay: cells; assay type: functional, cell-based; conditions: Homo sapiens
BJ [7] = assay: BJ-TERT-LT-ST fibroblast viability loss – cell-based, RAS-independent, luminescence, dose response (AID 1935); assay type: functional; conditions: Homo sapiens;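 also: BJ fibroblasts immortalized with TERT plus LT and ST oncogenes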
[8] = molecular target: Luciferin 4-monooxygenase (Photinus pyralis, UniProt P08659); assay: inhibition of purified Photinus pyralis luciferase – biochemical, luminescence, dose response (AID 1891)
[9] = DRD fibroblast viability loss – cell-based, non-viral oncogenic, luminescence, dose response (AID 1934); assay type: functional; conditions: Homo sapiens
Cytochrome P450 3A4 = Cytochrome P450 3A4 (Homo sapiens, UniProt P08684);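 also: CYP3A4 tested as one member of a cytochrome P450 panel screen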
Cytochrome P450 2C19 = Cytochrome P450 2C19 (Homo sapiens, UniProt P33261); assay: Cytochrome panel assay with activity outcomes. Panel member name: p450-cyp2c19 Compounds with AC50 equal or less than 10 uM are considered active; assay type: functional; conditions: read-out: AC50
Cytochrome P450 2C9 = Cytochrome P450 2C9 (Homo sapiens, UniProt P11712)
Cytochrome P450 2D6 = Cytochrome P450 2D6 (Homo sapiens, UniProt P10635);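 also: CYP2D6 member of a cytochrome P450 panel assay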
[10] = Luminescence Cell-Based Dose Response HTS to Identify Inhibitors of 5'UTR Stem-Loop Driven Prion Protein mRNA Translation in H4 Neuroglioblastoma Cells. [Related pubchem assays: 1827 (Project Summary), 1813 (Primary HTS)]; assay type: functional
[11] = luciferase reporter signal suppression in cells – H4 neuroglioma cells, luminescence, dose response (AID 1990); assay type: functional, cell-based
[12] = NIH3T3 cell viability loss – ATP luminescence, mouse fibroblasts, counter-screen, dose response (AID 2010); assay type: functional, cell-based;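 also: cells exposed to compound for about 90 hours before reading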
[13] = Trypanosoma cruzi growth suppression in host cells – NIH3T3 host cells, beta-gal luminescence, confirmation (AID 2044); assay type: functional, cell-based;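 also: intracellular parasites grown in NIH/3T3 mouse fibroblasts as host cells; luminescent beta-galactosidase reporter signal from transgenic T. cruzi replicating inside host cells; inhibitors lower the luminescence signal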

Cytochrome P450 2C9, sequence (P11712 whole entry): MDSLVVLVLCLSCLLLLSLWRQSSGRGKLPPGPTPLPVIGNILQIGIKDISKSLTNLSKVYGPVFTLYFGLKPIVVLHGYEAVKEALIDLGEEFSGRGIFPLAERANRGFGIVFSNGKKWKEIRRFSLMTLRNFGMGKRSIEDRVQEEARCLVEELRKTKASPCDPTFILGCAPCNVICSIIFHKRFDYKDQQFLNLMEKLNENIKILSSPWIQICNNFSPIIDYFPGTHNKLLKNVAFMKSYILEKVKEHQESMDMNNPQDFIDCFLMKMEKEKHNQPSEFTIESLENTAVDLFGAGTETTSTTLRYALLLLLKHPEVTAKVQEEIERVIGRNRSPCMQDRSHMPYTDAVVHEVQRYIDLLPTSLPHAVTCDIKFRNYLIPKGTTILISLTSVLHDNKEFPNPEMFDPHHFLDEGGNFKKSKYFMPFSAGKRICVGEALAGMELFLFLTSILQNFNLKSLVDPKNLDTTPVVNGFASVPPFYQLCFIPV
FAD-linked sulfhydryl oxidase ALR, sequence (P55789 whole entry): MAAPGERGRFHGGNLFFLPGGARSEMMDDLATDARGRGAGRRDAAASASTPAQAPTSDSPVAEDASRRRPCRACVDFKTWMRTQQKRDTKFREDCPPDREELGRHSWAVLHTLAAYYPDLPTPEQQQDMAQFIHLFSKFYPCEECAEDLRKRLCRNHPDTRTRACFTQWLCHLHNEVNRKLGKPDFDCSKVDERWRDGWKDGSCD
Cytochrome P450 2C19, sequence (P33261 whole entry): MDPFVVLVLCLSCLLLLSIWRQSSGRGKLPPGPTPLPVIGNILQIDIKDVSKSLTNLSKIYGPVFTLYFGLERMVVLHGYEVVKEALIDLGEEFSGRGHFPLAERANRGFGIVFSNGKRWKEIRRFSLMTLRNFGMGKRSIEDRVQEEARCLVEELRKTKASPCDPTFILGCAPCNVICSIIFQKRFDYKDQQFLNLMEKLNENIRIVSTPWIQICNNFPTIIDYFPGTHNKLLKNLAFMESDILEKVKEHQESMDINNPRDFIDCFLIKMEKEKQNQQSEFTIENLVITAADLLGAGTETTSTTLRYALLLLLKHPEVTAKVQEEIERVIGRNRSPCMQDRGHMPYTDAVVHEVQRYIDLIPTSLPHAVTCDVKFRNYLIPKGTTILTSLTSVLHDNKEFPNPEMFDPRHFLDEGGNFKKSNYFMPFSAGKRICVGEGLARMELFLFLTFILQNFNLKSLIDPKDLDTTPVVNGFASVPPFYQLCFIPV
Cytochrome P450 2D6, sequence (P10635 whole entry): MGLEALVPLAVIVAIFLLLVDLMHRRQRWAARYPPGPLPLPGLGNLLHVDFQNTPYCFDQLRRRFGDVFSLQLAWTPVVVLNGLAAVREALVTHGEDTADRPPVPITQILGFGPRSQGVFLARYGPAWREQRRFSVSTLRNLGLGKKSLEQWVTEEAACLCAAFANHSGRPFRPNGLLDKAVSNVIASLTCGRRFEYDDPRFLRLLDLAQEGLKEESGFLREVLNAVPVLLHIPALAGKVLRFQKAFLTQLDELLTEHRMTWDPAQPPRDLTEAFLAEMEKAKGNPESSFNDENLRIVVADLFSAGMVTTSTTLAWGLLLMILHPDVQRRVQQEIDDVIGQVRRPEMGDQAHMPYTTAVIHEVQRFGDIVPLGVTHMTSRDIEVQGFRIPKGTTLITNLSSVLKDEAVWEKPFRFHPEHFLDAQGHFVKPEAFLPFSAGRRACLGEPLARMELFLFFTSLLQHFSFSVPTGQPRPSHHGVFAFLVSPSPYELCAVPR
Cytochrome P450 3A4, sequence (P08684 whole entry): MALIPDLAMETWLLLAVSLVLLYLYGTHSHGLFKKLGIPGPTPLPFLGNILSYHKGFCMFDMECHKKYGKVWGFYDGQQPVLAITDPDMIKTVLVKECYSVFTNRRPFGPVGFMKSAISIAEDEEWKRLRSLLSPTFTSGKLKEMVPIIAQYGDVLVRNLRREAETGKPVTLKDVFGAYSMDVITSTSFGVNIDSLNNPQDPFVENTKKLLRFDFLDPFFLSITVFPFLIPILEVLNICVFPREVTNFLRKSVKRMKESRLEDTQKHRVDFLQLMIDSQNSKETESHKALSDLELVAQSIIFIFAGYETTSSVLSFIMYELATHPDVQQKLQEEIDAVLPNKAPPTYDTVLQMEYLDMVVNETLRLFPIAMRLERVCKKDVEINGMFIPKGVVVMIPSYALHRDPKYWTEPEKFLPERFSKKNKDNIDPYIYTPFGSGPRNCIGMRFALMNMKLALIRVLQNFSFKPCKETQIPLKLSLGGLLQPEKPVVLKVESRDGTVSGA
Luciferin 4-monooxygenase, sequence (P08659 whole entry): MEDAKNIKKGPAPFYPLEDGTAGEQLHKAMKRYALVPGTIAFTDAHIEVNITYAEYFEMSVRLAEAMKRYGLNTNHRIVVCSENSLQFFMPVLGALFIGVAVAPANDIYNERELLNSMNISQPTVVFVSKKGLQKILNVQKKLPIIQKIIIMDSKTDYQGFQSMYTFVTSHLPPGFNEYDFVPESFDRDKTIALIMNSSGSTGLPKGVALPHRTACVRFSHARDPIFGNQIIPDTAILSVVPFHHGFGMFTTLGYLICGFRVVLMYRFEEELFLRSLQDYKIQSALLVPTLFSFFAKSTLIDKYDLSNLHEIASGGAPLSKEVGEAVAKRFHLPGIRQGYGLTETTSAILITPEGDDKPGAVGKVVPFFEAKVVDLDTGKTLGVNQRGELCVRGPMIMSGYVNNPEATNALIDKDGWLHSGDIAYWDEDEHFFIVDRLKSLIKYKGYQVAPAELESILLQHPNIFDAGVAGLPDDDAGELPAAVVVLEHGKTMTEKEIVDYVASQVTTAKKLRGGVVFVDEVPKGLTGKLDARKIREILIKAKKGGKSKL

SMILES: CCOC(=O)c1oc2ccc(S(=O)(=O)n3nc(-c4ccc(Cl)cc4)cc3N)cc2c1C
- CC50 (Vero): > 25 µM (active)

SMILES: Cc1cc(Oc2ncccc2[N+](=O)[O-])c2cc(Cl)ccc2n1
- AC50 [1]: 0.409 µM (active)

SMILES: COc1ccc(NCc2cc3ccccc3nc2O)cc1
- IC50 (H9c2): > 79 µM (inactive)
- IC50 [2]: 94.7 µM (active)

SMILES: O=C(NN/C=C1\C(=O)N(c2ccccc2Cl)C(=O)c2ccccc21)C1COc2ccccc2O1 (stereo not drawn)
- EC50 (Streptococcus): 7.4 µM (active)
- IC50 (H9c2): 17.2 µM (active)
- EC50 [3]: 6.64 µM (active)
- EC50 (Streptokinase A): > 150 µM (not active)

SMILES: OC1CCN(c2c3c(nc4cc(-c5cccc(F)c5)nn24)CCCC3)CC1
- IC50 (H9c2): > 79 µM (inactive)

SMILES: Nc1cc2sc(-c3ccc(C(=O)O)cc3)nc2cc1Cl
- EC50 (BJ [4]): 20.4 µM (active)
- EC50 [5]: 1.32 µM (active)
- EC50 (BJ [6]): 17 µM (active)
- EC50 (BJ [7]): > 150 µM (inconclusive)
- EC50 [8]: 0.441 µM (active)
- EC50 [9]: 15.4 µM (active)

SMILES: COc1cccc(Oc2cnc(N)nc2-c2ccc(OC)cc2O)c1
- EC50 (BJ [4]): 17.9 µM (inconclusive)
- EC50 (BJ [6]): 27.6 µM (active)
- EC50 (BJ [7]): 67.1 µM (active)
- EC50 [9]: 10.9 µM (active)

SMILES: Cn1c2ccccc2c2cc(C(=O)N3CCOCC3)sc21
- AC50 (Cytochrome P450 3A4): 28.2 µM (inconclusive)
- AC50 (Cytochrome P450 2C19): 39.8 µM (inconclusive)
- AC50 (Cytochrome P450 2C9): inconclusive

SMILES: COc1cc(OC)cc(C(=O)Nc2ccc(N3CCN(C(=O)c4cccs4)CC3)cc2)c1
- EC50 (BJ [4]): 14.9 µM (active)
- EC50 (BJ [6]): 61.2 µM (active)
- EC50 (BJ [7]): > 150 µM (inconclusive)
- EC50 [9]: 19.5 µM (active)

SMILES: CCCCCCCCCCCCCCCC(=O)NC[C@@H](COP(=O)([O-])OCC[N+](C)(C)C)OCC
- AC50 (Cytochrome P450 2D6): 31.6 µM (inconclusive)
- AC50 (Cytochrome P450 2C19): 39.8 µM (inconclusive)
- AC50 (Cytochrome P450 2C9): inconclusive

SMILES: CC(OC(=O)c1cc(-c2cccnc2)nc2ccccc12)C(=O)Nc1ccc2ccccc2c1 (stereo not drawn)
- IC50 (H9c2): > 79 µM (inactive)

SMILES: COc1cc(/C=C(\C#N)c2nc3c(s2)CC(C)CC3)ccc1O (stereo not drawn)
- AC50 (Cytochrome P450 2D6): 28.2 µM (inconclusive)
- AC50 (Cytochrome P450 2C19): 39.8 µM (inconclusive)
- AC50 (Cytochrome P450 2C9): inconclusive

SMILES: COCCCNCCCCOc1c(Cl)cc(C)cc1Br.O=C(O)C(=O)O
- AC50 (Cytochrome P450 2C9): inconclusive
- IC50 [2]: 64.1 µM (active)

SMILES: COc1cccc(NC(=O)c2oc3ccc(S(=O)(=O)N4CCOCC4)cc3c2C)c1
- IC50 (H9c2): > 79 µM (inactive)

SMILES: CCn1c2ccccc2c2nc3cc(OC)c(OC)cc3nc21
- IC50 (H9c2): > 79 µM (inactive)

SMILES: Cc1ccn2c(NC3CCCC3)c(-c3ccncc3)nc2c1
- AC50 [1]: 1.45 µM (active)
- IC50 [2]: 55.3 µM (active)

SMILES: Cc1ccc(OCCOC(=O)CCc2nc(O)c3ccccc3n2)cc1
- IC50 (H9c2): 10.6 µM (active)

SMILES: CN(C)c1ccc(C2N(c3ccc(F)cc3)C(=O)C3CCCN32)cc1 (stereo not drawn)
- AC50 [1]: 49.4 µM (active)

SMILES: O=S(=O)(c1ccccc1)N1CCC2(CC1)CN(c1ccncc1)C2
- AC50 (Cytochrome P450 3A4): 39.8 µM (inconclusive)
- AC50 (Cytochrome P450 2C9): inconclusive

SMILES: Oc1nc(N2CCN(c3ccccc3)CC2)nc2c1CCCC2
- IC50 (H9c2): > 79 µM (inactive)

SMILES: Cc1ccc2c(c1)CCCN2CC(=O)N(C)c1c(N)n(Cc2ccccc2)c(=O)[nH]c1=O
- AC50 [1]: 20 µM (active)

SMILES: O=C(CC(C(=O)c1ccccc1)c1ccccc1)c1ccccc1 (stereo not drawn)
- IC50 (H9c2): > 79 µM (inactive)

SMILES: O=C(N/N=C/c1ccc(Cl)cc1)c1[nH]nc2c1CCCC2
- CC50 (Vero): 2.59 µM (active)
- EC50 [10]: > 120 µM (not active)
- EC50 (BJ [6]): 39.2 µM (active)
- EC50 (BJ [7]): 0.669 µM (active)
- EC50 [9]: 0.657 µM (active)
- EC50 [11]: 8.55 µM (inconclusive)

SMILES: O=[N+]([O-])c1ccc(Cl)c(/C=N/N2CCN(Cc3ccccc3)CC2)c1
- AC50 (Cytochrome P450 2D6): 11.2 µM (inconclusive)
- AC50 (Cytochrome P450 2C9): inconclusive

SMILES: C/C(=N\Nc1cccc(Cl)c1)c1ccncc1
- AC50 [1]: 0.536 µM (active)
- EC50 [12]: > 60 µM (not active)
- EC50 [13]: 1.42 µM (active)

SMILES: CNc1nc(N)c(C(=O)C(C)(C)C)s1
- AC50 [1]: 4.57 µM (active)
